Source: US11357823B2, “Method for treating cerebral stroke” (Suzhou Yabao Pharmaceutical R&D Co., Ltd., priority 2019, dated 2022)
Where two headings read alike, the source gives them in different places.

Legend:
[1] = test system: acute cerebral ischemia-reperfusion injury in rats; type: in vivo; details: for Scope of cerebral infarction (%): Edaravone 6.0 mg/kg i.v., TTC staining 24 hours after ischemia, Mean ± SEM, model group 42.53 ± 3.27
[2] = test system: cortical neurons; test: NMDA-induced excitotoxic damage on cortical neurons; type: cell-based, SD rats; details: A5 pretreatment then NMDA, compared with NMDA group; trypan blue, TUNEL, immunofluorescence
Source text: Example 5 studied the neuroprotective effect of A5 protein on NMDA (N-methyl-D-aspartate)—induced excitotoxic damage on cortical neurons in rats. NMDA can activate NMDA receptor to increase Ca^2+ content in brain tissue, and NOS is activated in a large amount, which leads to a series of physiological or pathological changes such as the synthesis of a large number of NO, causing damage to neurons in brain. In order to observe the neuroprotective effect of A5 protein on neuronal damage induced by excitotoxicity, the neuron was pretreated with A5 protein.
In the experiment, 17 day embryonic SD rats were selected and the cortical neurons were cultured. Then the neurons were divided into control group, NMDA group and A5 pretreatment group. The neurons in NMDA group were added with NMDA for exposure, and the neurons in A5 pretreatment group were incubated with A5 protein for a period of time, and then added with NMDA. For different treatment groups, trypan blue staining was used to evaluate cell viability, TUNEL staining was used to detect apoptosis cells and immunofluorescence cytochemistry was used to detect neuron morphology.

[3] = test system: primary cortical neurons; test: Oxygen glucose deprivation (OGD) model with primary cortical neurons; type: cell-based; details: 8 hours anoxic culture, A5 in DMEM during 24 hours reoxygenation; CCK-8, flow cytometry
Method: Oxygen glucose deprivation (OGD) model is a stimulation model simulating ischemia/hypoxia at the cell level. By changing the cell culture conditions, such as putting the cells into the hypoxia box or into the sugar free medium, the damage of cells under the condition of ischemia/hypoxia is simulated.
OGD model was established with primary cortical neurons. The cells in the culture plate were washed twice with PBS, and then the glucose-free DMEM exchanged with 95% N2+5% CO2 for 30 minutes was added. Then the cells were quickly placed in 37° C., 94% N2+1% O2+5% CO2 hypoxia incubator. After 8 hours of anoxic culture, the corresponding DMEM medium (i.e. DMEM medium containing A5) was added, and then put the plate into a 37° C. 5% CO2 cell incubator for 24 hours of reoxygenation. After 24 hours of culture, morphological changes were observed under inverted microscope, cell survival rate was detected by CCK-8 colorimetry and apoptosis rate was detected by flow cytometry. At the same time, the treatment group of normoxia and normal glucose was set as the control group.

[4] = test system: co-cultured spontaneously transformed endothelial cell line and purified rat astrocytes; test: blood-brain barrier (BBB) model in vitro; type: cell-based; details: BBB model injured after stimulation, then treated with A5 protein
Source text: Blood brain barrier is composed of three components: brain microvascular endothelial cells, astrocytes and basement membrane. The damage of blood-brain barrier is one of the important pathology of stroke.
In the experiment, the blood-brain barrier model was established by co-culturing spontaneously transformed endothelial cell line and purified rat astrocytes. The blood-brain barrier (BBB) model in vitro was injured after stimulation, and then treated with A5 protein.

[5] = test system: rat model of focal cerebral ischemia; test: rat model of focal cerebral ischemia established by light irradiation; type: in vivo; details: annexin A5 injected into the caudal vein
Method: (§1) It was confirmed by the rat model of ischemia-reperfusion that the annexin A5 could reduce the area of cerebral infarction, improve the symptoms of neurological deficits and promote long-term motor recovery in rats. For example, a rat model of focal cerebral ischemia was established by light irradiation, and then annexin A5 was injected into the caudal vein. […] Take another example, the rat model of hemorrhagic stroke was established by intracerebral injection of autologous arterial blood, and then the rats were injected with annexin A5 injection via caudal vein.

[6] = test system: primary purified microglia; test: LPS-induced over activation of primary purified microglia; type: cell-based; details: LPS-stimulated primary microglia; MTT, cellular immunochemistry
Source text: Microglia plays an important role in the inflammatory process of the central nervous system. The moderate activation of microglia can protect neurons, but the over activated microglia will release a large number of neurotoxic factors, such as […], which will lead to the occurrence of neurodegenerative diseases. Lipopolysaccharide (LPS) can activate microglia, which leads to the over activation of microglia and the damage of neurons. A5 was used to observe the effect of LPS on the over activation of microglia.
During the experiment, LPS was used to stimulate the primary purified microglia as the control group, and A5 protein was added as the experimental group. For the above treatment, MTT method was used to detect cell viability, and cellular immunochemistry method was used to observe cell morphological changes. […] Therefore, A5 protein can be used to inhibit the over activation of immune cells in the brain, such as microglia.

[7] = test system: rat model of hemorrhagic stroke; test: rat model of hemorrhagic stroke by intracerebral injection of autologous arterial blood; type: in vivo; details: annexin A5 injection via caudal vein
Method: as §1

[8] = test system: SD rats; test: Toxicity of A5 protein in single intravenous injection in SD rats; type: in vivo
Method: In this study, A5 protein was injected intravenously once in SD rats to observe the acute toxicity, severity and main toxic target organs. The dosage was 0 (blank adjuvant), 1000, 3000 and 9000 μg/kg respectively. After the intravenous injection, the animal's posture, gait, reaction, nerve activity, appetite, fur, eyes, ears, mouth, nose, limbs, breath, feces and other clinical symptoms were observed continuously. After that, the recovery from toxic reaction was observed continuously until the 14th day after administration. The animals were dissected and examined for macropathology 15 days after administration. […] The maximum-tolerated dose (MTD) of single intravenous injection of A5 protein was more than […].

[9] = test system: cynomolgus monkeys; test: Toxicity of A5 protein in single intravenous injection in cynomolgus monkeys; type: in vivo
Method: A single intravenous injection of A5 protein was used to observe the acute toxicity and its severity and main toxic target organs in cynomolgus monkeys. The dosage was 0 (blank adjuvant), 500, 1500 and 4500 μg/kg respectively. After the single intravenous injection, observe the clinical symptoms of the animals (including feces, appearance, respiration, nerve reaction, activity status, etc.) until the 15th day after the administration. After administration, the food intake was measured once a day and the body weight was measured once a week. The body temperature, blood pressure and electrocardiograph (ECG) of the animals were measured before and after administration on the day of administration, and again on the 1st, 7th and 15th day of administration. Hematology (including blood coagulation) and serum biochemical examination were carried out for all animals on the 1st, 7th and 15th day after administration, and urine examination was carried out on the 14th day after administration. On the 15th day after administration, the animals were dissected for macropathological examination, and if necessary, for histopathological examination. […] In this experiment, the maximum-tolerated dose (MTD) of cynomolgus monkeys was more than […].

CC1=NN(c2ccccc2)C(=O)C1 [Edaravone]
Scope of cerebral infarction (%) [1]: 35.93 ± 3.94% | Scope of cerebral infarction (%) ([1]; listed as edaravone): trend of reducing

A5: recombinant human full-length annexin A5 expressed in E. coli, SEQ ID NO:1, 319 amino acids, N-terminal alanine not acetylated
bleeding risk ([1]; experimental group treated with annexin A5, MCAO rats): no bleeding risk | damage of excitatory toxicity to neurons [2]: reduce the damage of excitatory toxicity to neurons | damage of neurons caused by oxygen glucose deprivation [3]: reduce the damage of neurons caused by oxygen glucose deprivation | repair of damaged blood-brain barrier [4]: repair the damaged blood-brain barrier | area of cerebral infarction [5]: decreased significantly | neurological deficit symptoms [5]: improved | over activation of microglia induced by LPS [6]: inhibit the over activation of microglia induced by LPS | area of cerebral infarction [7]: decreased | neurological deficit symptoms [7]: significantly improved | macropathological examination of tissues and organs ([8]; 15 days after administration): no abnormality was found | weight changes ([8]; female and male animals in the administration group): normal | clinical symptoms ([8]; single i.v. 1000, 3000 and 9000 μg/kg, observed to day 14): normal | prothrombin time (PT), activated partial thromboplastin time (APTT) and thrombin time (TT) ([9]; 1st day and 15th day after administration): no significant change | clinical symptoms, injection site, body weight, food intake, body temperature, blood pressure, ECG, urinalysis, serum biochemical and pathological examination ([9]; single i.v. 500, 1500 and 4500 μg/kg, to day 15): no significant changes
